Test results reported in patent publication US6746623B2, “Alkyl glycidyl ether-capped diamine foam controlling agent” (Air Products and Chemicals, Inc., priority 2002, dated 2004).
Marks after values point to notes of the source that are not given here.

Key:
[1] = Foam test of DOSS solutions with added foam control agent (based on ASTM D 1173-53); type: physicochemical; details: for Foam height after 1 min / Foam height after 10 min / Initial foam height: 0.1 wt % foam control agent added to 0.1 wt % DOSS in water; for Initial foam height: ambient temperature
Description: Dioctyl sodium sulfosuccinate (DOSS) is a commonly used surfactant in waterborne compositions. DOSS is capable of forming stable foams when dissolved in water. The foam control characteristics of various foam control agents may be assessed by measuring the foam generated by a 0.1 wt % aqueous solution of DOSS and comparing this to the foam generated after the addition of foam control agent to a 0.1 wt % DOSS solution. The DOSS utilized in these measurements was an Aerosol OT 75% surfactant obtained from Cytec Industries. The foaming and foam stability of DOSS were measured using a procedure based upon ASTM D 1173-53 at ambient temperature, typically 23° C.
In these tests, an aqueous solution of DOSS or the filtrate from the DOSS/foam control agent mixture is added from an elevated foam pipette to a foam receiver containing the same solution. The foam height is measured at the completion of the addition (“Initial Foam Height”) and the time required for the foam to dissipate at the air-liquid interface (“Time to 0 Foam”) is recorded. This test provides a comparison between the foaming characteristics of various aqueous compositions. The results for the foam control agents prepared in Examples 1-28 are reported in Table 1 along with comparative data for a 0.1 wt % solution of DOSS with no added foam control agent (Example 29).

[2] = Dynamic surface tension of aqueous solutions, maximum bubble pressure method; type: physicochemical; details: for γ at 0.1 wt %, 0.1 b/s / γ at 0.1 wt %, 1 b/s / γ at 0.1 wt %, 6 b/s / γ at 0.1 wt %, 20 b/s: 0.1 wt % in distilled water
Description: Dynamic surface tension data were obtained for the soluble portion of these samples using the maximum bubble pressure method at bubble rates from 0.1 bubbles/sec (b/s) to 20 b/s.
The relative efficiency of surface tension reduction can be obtained by comparing surface tension reduction of solutions containing the same amount of different surfactants. Such data are given for 0.1 wt % solutions of the foam control agents at 0.1, 1, 6 and 20 bubbles/second (b/s). The limiting surface tensions at 0.1, 1, 6 and 20 b/s represent the lowest surface tensions in water which can be achieved at the given surface creation rates for a given surfactant regardless of the amount of surfactant used and is used to evaluate the effectiveness of a surfactant. In most cases the limiting surface tension was taken at 1.0 wt % since the foam control agent was insoluble at this concentration. In the case where the foam control agent was soluble at 1.0 wt %, the limiting surface tension was taken at 5.0 wt % (where the samples were insoluble). These values give information about the relative ability to a surfactant to reduce surface defects under near-equilibrium conditions (0.1 b/s) through very dynamic conditions (20 b/s).

[3] = saturated solution made using 1.0 wt % in water
[4] = saturated solution made using 5.0 wt % in water

| SMILES | γ at 0.1 wt %, 0.1 b/s [2] [dyne/cm] | γ at 0.1 wt %, 1 b/s [2] [dyne/cm] | γ at 0.1 wt %, 6 b/s [2] [dyne/cm] | γ at 0.1 wt %, 20 b/s [2] [dyne/cm] | γ limiting, 0.1 b/s [2, 3] [dyne/cm] | γ limiting, 1 b/s [2, 3] [dyne/cm] | γ limiting, 6 b/s [2, 3] [dyne/cm] | γ limiting, 20 b/s [2, 3] [dyne/cm] | γ limiting, 0.1 b/s [2, 4] [dyne/cm] | γ limiting, 1 b/s [2, 4] [dyne/cm] | γ limiting, 6 b/s [2, 4] [dyne/cm] | γ limiting, 20 b/s [2, 4] | Foam height after 1 min [1] [cm] | Foam height after 10 min [1] [cm] | Initial foam height [1] [cm] | Effect on foaming of DOSS solution (in words) ([1]; added to the 0.1 wt % aqueous DOSS solution) |
| --- | --- | --- | --- | --- | --- | --- | --- | --- | --- | --- | --- | --- | --- | --- | --- | --- |
| CCCCOCC(O)CNC1CCC(CC2CCC(N)CC2)CC1 (mixture of isomers) [PACM/1 BGE] | 44.7 | 47.0 | 50.3 | 55.2 | 43.5 | 44.5 | 46.2 | 48.7 | – | – | – | – | 0 | 0 | 2.3 | – |
| CC(C)COCC(O)CNCCN (racemic) [EDA/1 IBGE] | 47.9 | 51.9 | 53.8 | 59.6 | – | – | – | – | 29.7 | 30.1 | 30.5 | 31.7^b dyne/cm | 1.0 | 0.3 | 1.5 | – |
| CCCCOCC(O)CNCCCOCCOCCOCCCN (stereo not drawn) [DAPDEG/1 BGE] | 50.3 | 54.1 | 56.7 | 61.0 | 36.4 | 40.3 | 42.9 | 45.7 | – | – | – | – | 0.8 | 0.2 | 1.7 | – |
| CCCCOCC(O)CNCCCOCCOCCOCCCN(CC(O)COCCCC)CC(O)COCCCC (stereo not drawn) [DAPDEG/3 BGE] | 38.0 | 39.4 | 42.1 | 47.6 | 33.5 | 38.7 | 34.3 | 36.1 | – | – | – | – | 0.9 | 0.1 | 1.9 | – |

More lines, main results first:

| γ at 0.1 wt %, 0.1 b/s [2] [dyne/cm] | γ at 0.1 wt %, 1 b/s [2] [dyne/cm] | γ at 0.1 wt %, 6 b/s [2] [dyne/cm] | γ at 0.1 wt %, 20 b/s [2] [dyne/cm] | γ limiting, 0.1 b/s [2, 3] [dyne/cm] | γ limiting, 1 b/s [2, 3] [dyne/cm] | γ limiting, 6 b/s [2, 3] [dyne/cm] | γ limiting, 20 b/s [2, 3] [dyne/cm] | γ limiting, 0.1 b/s [2, 4] [dyne/cm] | γ limiting, 1 b/s [2, 4] [dyne/cm] | γ limiting, 6 b/s [2, 4] [dyne/cm] | γ limiting, 20 b/s [2, 4] | SMILES | Foam height after 1 min [1] [cm] | Foam height after 10 min [1] [cm] | Initial foam height [1] [cm] | Effect on foaming of DOSS solution (in words) ([1]; added to the 0.1 wt % aqueous DOSS solution) |
| --- | --- | --- | --- | --- | --- | --- | --- | --- | --- | --- | --- | --- | --- | --- | --- | --- |
| 28.6 | 37.3 | 54.7 | 63.3 | 27.4 | 28.3 | 30.6 | 32.5 | – | – | – | – | CCCCC(CC)COCC(O)CNCCN (mixture of isomers) [EDA/1 EHGE] | 0.2 | 0 | 1.5 | – |
| 46.1 | 49.4 | 53.4 | 59.9 | 36.7 | 37.2 | 38.1 | 39.8 | – | – | – | – | CCCCOCC(O)CNCCN (racemic) [EDA/1 BGE] | 2.0 | 1.4 | 3.5 | increase in foaming |
| 42.3 | 44.8 | 47.9 | 52.6 | 39.3 | 40.1 | 41.1 | 42.9 | – | – | – | – | CCCCOCC(O)CNCCCCCCN (racemic) [HDA/1 BGE] | 0.4 | 0 | 1.4 | – |
